A short description of data set [1]: Intravitreal Pharmacokinetic Study of vorolanib insert (Example 5A). The class given is in vivo, Male Dutch Belted Rabbits. The procedure: An Intravitreal Pharmacokinetic Study was performed in Male Dutch Belted Rabbits. The objective of this study was to characterize the plasma and ocular tissue pharmacokinetics of a vorolanib insert following bilateral intravitreal injection on Day 1. Animals were evaluated up to 24 months following placement of the intravitreal insert.
The low dose group (1) received 3 inserts per eye for a total dose of 630 μg per eye. The high dose group (2) animals received 6 inserts per eye given in 2 separate injections (3 inserts per injection) for a total dose of 1,260 μg per eye.
Prior to each scheduled sacrifice point, one whole blood sample was collected from a targeted 2 animals per group via puncture of a marginal ear vein. Samples were tested for levels of vorolanib and its metabolite. Two animals per group were euthanized on day 1 at 6, 12, 24 and 48 hours, on days 7 and 14, and at 1, 2, 4, 6, 8, 16 and 24 months.

Data set [2] in a line: Intravitreal Pharmacokinetic Study of vorolanib insert, 12 months (Example 5B). The class given is in vivo, Dutch Belted Rabbits. On the procedure: Another Intravitreal Pharmacokinetic Study was performed in Dutch Belted Rabbits. The objective of this study was to evaluate the plasma and ocular pharmacokinetics of a vorolanib insert following bilateral intravitreal injection in rabbit eyes. Animals were evaluated up to 12 months following placement of the intravitreal insert.
Dutch Belted rabbits were administered vorolanib inserts in each eye by intravitreal injection. Group 1 eyes received 1 insert containing 643 μg of vorolanib, and Group 2 eyes received 2 inserts containing 900 μg total. Blood samples were collected at 2, 7, 14, and 28 days and then once monthly for months 2-12. Inserts were recovered at 2, 7, and 14 days and then at 1, 2, 4, 6, 8, 10, and 12 months. Residual vorolanib levels were determined in all explants using high-performance liquid chromatography. The vorolanib release rate was estimated based on residual levels in the explants. Plasma and ocular tissues were separated and analyzed for vorolanib and its metabolite using liquid chromatography-mass spectrometry.

The nature of data set [3]: 18 month intravitreal toxicity and plasma pharmacokinetics study (Example 6). It is filed as in vivo. On the procedure: An 18 month intravitreal toxicity study for the insert was also performed in 80 Dutch Belted rabbits (40 male and 40 female). Animals were evaluated for a period of 6 and 18 months following placement of intravitreal inserts. The objective was to characterize the ocular toxicity, plasma pharmacokinetics and biodegradation of a vorolanib insert following bilateral intravitreal injection.
The tables below describe the group assignments and dose levels. For the toxicology groups, animals were sacrificed at 6 months and 18 months. For the plasma pharmacokinetic analysis, blood samples were collected at Days 1, 3, and 7 and then 1, 2, 3, 4, 5, 6, 12, 14, 16 and 18 Months.
The placebo group (1) animals received two placebo inserts by injection in each eye. The low dose group (2) animals received 2 inserts in each eye. The mid dose group (3) animals received 3 inserts in each eye given in 2 separate injections. The high dose group (4) animals received 4 inserts in each eye given in 2 separate injections (2 inserts/injection). The highest dose group (5) animals received 6 inserts in each eye given in 2 separate injections (3 inserts/injection).
At each scheduled timepoint, whole blood was collected via puncture of a marginal ear vein. Samples were analyzed for clinical pathology and plasma pharmacokinetics. Animals were euthanized according to the schedules described above. A complete gross necropsy was performed on all animals that were sacrificed or found dead during the study. Organs were weighed and tissues collected. Ocular tissues were collected for histopathology only.

The subject of data set [4] is Laser-Induced Choroidal Neovascularization (CNV). The data set can be described thus: Swine (Mini-pig) Model of Laser-Induced Choroidal Neovascularization, fluorescein angiography (Example 7). It is filed as in vivo. On the procedure: Safety and efficacy of a vorolanib insert were evaluated in a Swine (Mini-pig) Model of Laser-Induced Choroidal Neovascularization (CNV). The primary objective of this study was to evaluate the long-term safety and inhibition of vascular permeability and neovascularization in a laser-induced model of choroidal neovascularization (CNV) using a vorolanib insert in swine.
On the day of lasering (Groups 1-4) animals were treated with an 810 nm diode laser delivered through an indirect ophthalmoscope. Approximately 6 single laser spots were placed between retinal veins. Both eyes underwent laser treatment according to the schedule in the table above.
On the day of intravitreal injections animals were anesthetized and the eyes were aseptically prepared. […] Animals were allowed to recover normally from the procedure. The pigs were given a topical drop of antibiotic ophthalmic solution 4-6 hours later, and then BID for 2 additional days with at least 6 hours between doses. Animals were dosed on either Day 0 immediately following laser CNV induction or 7 days prior to laser CNV induction according to the schedule in the table above.
Flourescein Angiography was done in both eyes in anesthetized animals at the timepoints as indicated in the experimental design table.

As for `Cc1[nH]c(/C=C2\C(=O)Nc3ccc(F)cc32)c(C)c1C(=O)N[C@H]1CCN(C(=O)N(C)C)C1` [vorolanib, (S,Z)—N-(1-(Dimethylcarbamoyl)pyrrolidin-3-yl)-5-((5-fluoro-2-oxoindolin-3-ylidene)methyl)-2,4-dimethyl-1H-pyrrole-3-carboxamide], in data set [1] (630 vs 1,260 μg per eye), the “dose proportionality of maximum observed concentrations in vitreous and retina/choroid” value is reported as “nearly dose proportional”. Besides, the vorolanib plasma levels entry in data set [1] (PK study, intravitreal inserts) is on record as “low pg/mL range”; in data set [3] (intravitreal inserts) it was “low pg/mL range”. For the same compound, in data set [1] (after 99 days), the “change in plasma levels” value is reported as “No apparent change”. Also, the “drop in mean vorolanib concentration in ocular tissues and plasma” value in data set [2] (between months 8 and 10) is reported as 85%-99%. Also, the “vorolanib exposure rank order” value in data set [2] (ocular tissues and plasma) was “choroid=retina=vitreous>aqueous humor>plasma”. For the same compound, the “concentrations in target ocular tissues (choroid and retina) relative to IC50 for VEGFR2” value in data set [2] (through 8 months) is “above the IC50 for VEGFR2”. The “vorolanib levels in the vitreous and the retina/choroid relative to IC50 for VEGFR” value in data set [3] (at the time points tested) is “significantly above the IC50 for VEGFR”. For the same compound, in data set [3] (up to 6 inserts per eye), the “adverse findings attributed to vorolanib” value is on record as “No adverse findings”.

As to “aflibercept: VEGF inhibitor (Regeneron), intravitreal standard of care, comparator in swine CNV model”, the “efficacy in this model” value in data set [4] (2 mg IVT) is “normal amounts of efficacy”. For the same compound, the “reduction in Corrected Total Lesion Fluorescence (CTLF) from Day 7 to Day 28, rank among Groups 1-4” value in data set [4] (Group 1, 2 mg, 50 μL/eye IVT, Day 0) is recorded as “largest reduction”.
